Laboratory results reported in patent US8383637B2, “2-amino-quinazoline derivatives useful as inhibitors of β-secretase (BACE)” (Jansssen Pharmaceutica N.V., priority 2004, dated 2013).
“And” between values parts separate entries of the source, which are not always exact repeats. Identical values can stand only once.

Experiments:
[1] = molecular target: T1, β-secretase(BACE) (Homo sapiens, UniProt P56817); assay: BACE Assay-2 (FS1 substrate, IC50 and Ki); format: biochemical; details: procedure of Example 159, FS1 substrate; read-out: Ki μM (159)
T1 construct: purchased Panvera
Method: The FS1-substrate stock solution was prepared in DMSO as a 10 mg/mL solution. The FS1-substrate working solution was prepared by diluting the 10 mg/mL stock solution with substrate assay buffer to a final concentration of 300 μg/mL. The β-secretase (BACE) working solution was prepared by diluting a 0.83 mg/mL BACE stock solution with enzyme assay buffer to a final concentration of 4 μg/mL.
Test compounds were dissolved in DMSO at 10 mM.
The procedure for this assay was as follows: 15 μL of BACE working solution was pipetted into each well of a 96-well plate. To each well was then pipetted 2 μL of test compound at the selected concentration. Test compound and BACE were then mixed with a pipettor and incubated for 20 min at room temperature. To each well was then added 10 μL of the FS1 substrate working solution.
The procedure for the positive control was as follows: 15 μL of BACE working solution was pipetted into each well to be used as a positive control. To each well was then pipetted 2 μL of vehicle. Vehicle and BACE were then mixed with a pipettor and incubated for 20 min at room temperature. To each well was then added 10 μL of the FS1 substrate working solution.
For test compounds, measured at multiple concentrations, the measured T0 and T60 values were used to calculate an IC50 value using Graphpad Software (or PIR). For test compounds, Ki inhibition was determined as follows: For each compound concentration and positive control, rate of cleavage of substrate (Vi, where i=compound concentration in μM) was determined as Δ Fluorescence/Δ time (min). Cleavage rates (Vi) were plotted as a function of inhibitor concentration in μM [I]. The Ki was then determined by fitting the following equation to the graph of [I] vs Vi Y=aVmax/(50+24*(1+X/Ki)),

[2] = molecular target: T1, β-secretase(BACE); assay: BACE FS1% Inhibition Assay; format: biochemical; details: FS1 substrate; for inhibition at 3 µM: read-out: % Inhibition (FS) 3 μM; for inhibition at 10 µM: 10 μM test compound, read-out: % Inhibition (FS) 10 μM; for inhibition at 0.3 µM: read-out: % Inhibition (FS) 0.3 μM; for inhibition at 1 µM: read-out: % Inhibition (FS) 1 μM
Outline: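 Percent inhibition at each tested concentration, referenced to enzyme-free blank and vehicle-only positive control. Reaction: compound and BACE (4 μg/mL working stock) mixed 20 min at room temperature before FS1 substrate (300 μg/mL working stock), then 1 h at room temperature.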

T1 sequence (P56817 46-501): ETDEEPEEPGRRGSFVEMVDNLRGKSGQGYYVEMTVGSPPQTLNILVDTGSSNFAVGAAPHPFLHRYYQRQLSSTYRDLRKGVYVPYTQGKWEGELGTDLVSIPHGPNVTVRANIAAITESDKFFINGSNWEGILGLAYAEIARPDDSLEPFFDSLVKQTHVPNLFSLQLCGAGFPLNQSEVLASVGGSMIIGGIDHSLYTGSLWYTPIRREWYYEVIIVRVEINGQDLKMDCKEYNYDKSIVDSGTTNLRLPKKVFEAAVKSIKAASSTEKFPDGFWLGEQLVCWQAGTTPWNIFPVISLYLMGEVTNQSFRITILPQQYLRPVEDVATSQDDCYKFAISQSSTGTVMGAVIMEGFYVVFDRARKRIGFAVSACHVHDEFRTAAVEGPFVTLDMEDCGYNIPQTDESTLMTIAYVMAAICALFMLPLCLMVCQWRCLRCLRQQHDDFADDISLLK

Ki [1] [µM] | inhibition at 3 µM ([2]; 3 μM test compound) [%] | inhibition at 10 µM [2] [%] | inhibition at 0.3 µM ([2]; 0.3 μM test compound) [%] | inhibition at 1 µM ([2]; 1 μM test compound) [%] | % Inhibition (FS) 0.3 μM ([2]; 0.3 μM test compound) [%] | % Inhibition (FS) 1 μM ([2]; 1 μM test compound, 1 µM) | % Inhibition (FS) 3 μM ([2]; 3 μM test compound, 3 µM) [%] | Structure (SMILES)
0.81 | 60 | – | < 30 | – | <30 | <30% and 53% | 79 | CN(C(=O)c1cccc(CN2Cc3cc(-c4ccccc4S(=O)(=O)NC(C)(C)C)ccc3N=C2N)c1)C1CCCCC1 [Compound 158]
0.77 | 67 | – | < 30 | 49 | – | – | – | CN(C(=O)c1cccc(CN2Cc3cc(-c4cccnc4)ccc3N=C2N)c1)C1CCCCC1 [Compound 170]
0.47 | 76 | – | < 30 | 53 | – | – | – | CN(C(=O)c1cccc(CN2Cc3cc(-c4ccccc4C(N)=O)ccc3N=C2N)c1)C1CCCCC1 [Compound 173]
0.2 | 111 | – | 66 | 97 | – | – | – | Cc1cccc(-c2ccc3c(c2)CN(Cc2cccc(C(=O)N(C)C4CCCCC4)c2)C(N)=N3)c1 [Compound 176]
0.42 | 110 | – | 51 | 87 | – | – | – | Cc1ccccc1-c1ccc2c(c1)CN(Cc1cccc(C(=O)N(C)C3CCCCC3)c1)C(N)=N2 [Compound 261]
0.77 | 92 | – | 20 | 60 | – | – | – | CN(C(=O)c1cccc(CN2Cc3cc(-c4ccccc4C#N)ccc3N=C2N)c1)C1CCCCC1 [Compound 263]
1.1 | 92 | – | < 30 | 55 | – | – | – | CN(C(=O)c1cccc(CN2Cc3cc(-c4csc5ccccc45)ccc3N=C2N)c1)C1CCCCC1 [Compound 265]
0.65 | 71 | – | < 30 | < 30 | – | – | – | CN(C(=O)c1cccc(CN2Cc3cc(-c4ccccc4C(F)(F)F)ccc3N=C2N)c1)C1CCCCC1 [Compound 268]
1.1 | 81 | – | < 30 | 44 | – | – | – | Cc1ccccc1Oc1ccc2c(c1)CN(Cc1cccc(C(=O)N(C)C3CCCCC3)c1)C(N)=N2 [Compound 293]
0.52 | 87 | – | < 30 | 55 | – | – | – | CN(C(=O)c1cccc(CN2Cc3cc(-c4ccccc4OC(F)(F)F)ccc3N=C2N)c1)C1CCCCC1 [Compound 324]
0.33 | 92 | – | < 30 | 61 | – | – | – | CC(=O)Nc1ccccc1-c1ccc2c(c1)CN(Cc1cccc(C(=O)N(C)C3CCCCC3)c1)C(N)=N2 [Compound 328]
0.49 | 78 | – | < 30 | < 30 | – | – | – | CN(C(=O)c1cccc(CN2Cc3cc(-c4ccccc4[N+](=O)[O-])ccc3N=C2N)c1)C1CCCCC1 [Compound 333]
0.068 | 118 | – | 74 | 103 | – | – | – | CN(C(=O)c1cccc(CN2Cc3cc(-c4ccccc4F)ccc3N=C2N)c1)C1CCCCC1 [Compound 334]
0.78 | 67 | – | < 30 | 32 | – | – | – | Cc1ccccc1Sc1ccc2c(c1)CN(Cc1cccc(C(=O)N(C)C3CCCCC3)c1)C(N)=N2 [Compound 404]

The remaining lines, values behind:

Structure (SMILES) | Ki [1] [µM] | inhibition at 3 µM ([2]; 3 μM test compound) [%] | inhibition at 10 µM [2] [%] | inhibition at 0.3 µM ([2]; 0.3 μM test compound) [%] | inhibition at 1 µM ([2]; 1 μM test compound) [%] | % Inhibition (FS) 0.3 μM ([2]; 0.3 μM test compound) [%] | % Inhibition (FS) 1 μM ([2]; 1 μM test compound, 1 µM) | % Inhibition (FS) 3 μM ([2]; 3 μM test compound, 3 µM) [%]
CCCS(=O)(=O)NCCN1Cc2cc(Oc3ccccc3)ccc2N=C1N [Compound 134] | 0.37 | 70 | 104 | – | – | – | – | –
CN(C(=O)c1cccc(C(c2ccccc2)N2Cc3cc(Oc4ccccc4)ccc3N=C2N)c1)C1CCCCC1 (stereo not drawn) [Compound 136] | 0.5 | 85 | 133 | – | – | – | – | –
CCCC(CCCC(=O)NC1CCCCCC1)N1Cc2cc(Oc3ccccc3)ccc2N=C1N (stereo not drawn) [Compound 137] | 0.73 | 82 | 107 | – | – | – | – | –
NC1=Nc2ccc(Oc3ccccc3)cc2CN1CCNC(=O)CCC1CCCC1 [Compound 140] | 0.32 | 79 | 101 | – | – | – | – | –
CCCCCC(CCC(=O)N(C)C1CCCCC1)N1Cc2cc(Oc3ccccc3)ccc2N=C1N (stereo not drawn) [Compound 148] | 0.25 | 114 | – | 35 | 62 | – | – | –
CCCCCC(CCC(=O)NC1CCCCC1)N1Cc2cc(Oc3ccccc3)ccc2N=C1N (stereo not drawn) [Compound 149] | 0.21 | 111 | – | 32 | 71 | – | – | –
CN(C(=O)CCC(c1ccccc1)N1Cc2cc(Oc3ccccc3)ccc2N=C1N)C1CCCCC1 (stereo not drawn) [Compound 151] | 0.23 | 79 | 104 | – | – | – | – | –
CN(C(=O)CCCC(c1ccccc1)N1Cc2cc(Oc3ccccc3)ccc2N=C1N)C1CCCCC1 (stereo not drawn) [Compound 152] | 0.3 | 85 | 107 | – | – | – | – | –
CN(C(=O)CCCN1Cc2cc(Oc3ccccc3)ccc2N=C1N)C1CCCCC1 [Compound 177] | 0.56 | 102 | – | < 30 | 80 | – | – | –
CC(C)N(C(=O)CCN1Cc2cc(Oc3ccccc3)ccc2N=C1N)C1CCCCC1 [Compound 179] | 1.04 | 85 | – | < 30 | 54 | – | – | –
CC(C)N(C(=O)c1cccc(CN2Cc3cc(Oc4ccccc4)ccc3N=C2N)c1)C1CCCCC1 [Compound 192] | 0.22 | 110 | – | 38 | 92 | – | – | –
CC(C)C(CC(=O)N(C)C1CCCCC1)N1Cc2cc(Oc3ccccc3)ccc2N=C1N (stereo not drawn) [Compound 201] | 0.4 | 66 | – | < 30 | < 30 | – | – | –
NC1=Nc2ccc(Oc3ccccc3)cc2CN1CCNC(=O)Nc1ccccc1 [Compound 205] | 0.32 | 90 | – | < 30 | 47 | – | – | –
Cc1cccc(Oc2ccc3c(c2)CN(Cc2cccc(C(=O)N(C)C4CCCCC4)c2)C(N)=N3)c1 [Compound 209] | 0.29 | 103 | – | < 30 | 58 | – | – | –
CC(C)CN(CC(C)C)C(=O)c1cccc(CN2Cc3cc(Oc4ccccc4)ccc3N=C2N)c1 [Compound 211] | 0.69 | 68 | – | < 30 | < 30 | – | – | –
COc1ccccc1C(=O)NCCN1Cc2cc(Oc3ccccc3)ccc2N=C1N [Compound 216] | 0.52 | 91 | – | < 30 | 45 | – | – | –
CN(C(=O)c1cccc(CN2Cc3cc(Oc4cccc(-c5ccccc5)c4)ccc3N=C2N)c1)C1CCCCC1 [Compound 231] | 3.8 | 75 | – | < 30 | 71 | – | – | –
Cc1cccc(C)c1-c1ccc2c(c1)CN(Cc1cccc(C(=O)N(C)C3CCCCC3)c1)C(N)=N2 [Compound 262] | 0.66 | 95 | – | 39 | 63 | – | – | –
COc1cccc(OC)c1-c1ccc2c(c1)CN(Cc1cccc(C(=O)N(C)C3CCCCC3)c1)C(N)=N2 [Compound 264] | 0.78 | 92 | – | 26 | 63 | – | – | –
COc1cccc(Oc2ccc3c(c2)CN(Cc2cccc(C(=O)N(C)C4CCCCC4)c2)C(N)=N3)c1 [Compound 292] | 1 | 83 | – | < 30 | 49 | – | – | –
NC1=Nc2ccc(Oc3ccccc3)cc2CN1C(CNC(=O)C(c1ccccc1)c1ccccc1)C1CCCCC1 (stereo not drawn) [Compound 304] | 0.56 | 100 | – | < 30 | 46 | – | – | –
CCC(c1cccc(C(=O)N(C2CCCCC2)C2CCCCC2)c1)N1Cc2cc(-c3ccccc3OC)ccc2N=C1N (stereo not drawn) [Compound 418] | 0.035 | 119 | – | 54 | 89 | – | – | –
CCC(c1cccc(C(=O)N(C2CCCCC2)C2CCCCC2)c1)N1Cc2cc(Oc3ccccc3)ccc2N=C1N (stereo not drawn) [Compound 419] | 0.29 | 109 | – | 38 | 64 | – | – | –
